Earlier results on one compound are cited in patent publication US7850997B2, “Dietary compositions and methods of enhancing lean body mass and exercise performance” (priority 2007, dated 2010).

The conditions of data set [1]: compared with placebo; patients.
The conditions of data set [2]: oral L-arginine 6 g for 3 days; 22 patients with stable angina pectoris and healed myocardial infarction.
For data set [3] the following is noted: after arginine 6 g/day for 10 days; 7 healthy males.
The conditions of data set [4]: 6 g oral L-arginine for 3 days vs placebo; 25 patients with stable coronary artery disease.
For data set [5] the following is noted: oral arginine 0.5 g/10 kg for one week, versus placebo; primary or precapillary secondary pulmonary hypertension.

`N=C(N)NCCCC(N)C(=O)O` (stereo not shown) [arginine, 2-amino-5-guanidinovaleric acid]: in data set [1], the “forearm blood flow during forearm exercise” value is reported as “significantly increased”. Also, in data set [2], the exercise capacity result is listed as “increased”. In data set [3], the “flow-mediated vasodilation (FMV) after 4 and 6 h after oral fat load” value was “normalized”; the “flow-mediated vasodilation (FMV) at 2 h after oral fat load” value is recorded as “significantly decreased”. For the same compound, the exercise duration result in data set [4] is given as “significantly increased”. Besides, in data set [5], the “mean pulmonary arterial pressure” value is recorded as “significantly decreased” and the pulmonary vascular resistance entry is on record as “significantly decreased”.
